The values below come from patent US20180161364A1 (priority 2015, published 2018).

Common to all, as to type: cell-based
Data set [1] concerns Aspergillus brasiliensis (DSM 1988/ATCC 16404). Description: microbe, parasite or virus in culture. The text has this: (§1) The following bacteria and fungi strains and methods were used:
Aspergillus brasiliensis (2d) and (9d): MIC determined in accordance with a method of the European Committee on Antimicrobial Susceptibility Testing: EUCAST E.DEF 9.1, July 2008, “Method for the determination of broth dilution minimum inhibitory concentrations of antifungal agents for conidia forming moulds” available under www.eucast.

Data set [2] deals with Candida albicans (DSM 1386/ATCC 10231). In words: microbe, parasite or virus in culture. The note with it: C. albicans.
Text: as §1
Candida albicans: MIC determined in accordance with the method described in EUCAST DEFINITIVE DOCUMENT EDef 7.2 “Method for the determination of broth dilution minimum inhibitory concentrations of antifungal agents for yeasts” available under www.eucast.org.

Data set [3] deals with Escherichia coli (DSM 1576/ATCC 8739). In words: microbe, parasite or virus in culture. Particulars: E. coli.
Text: as §1
(§2) Pseudomonas aeruginosa and Escherichia coli: MIC determined in accordance with DIN EN ISO 20776-1: 2006.

Data set [4] relates to Pseudomonas aeruginosa (DSM 1128/ATCC 9027). In words: microbe, parasite or virus in culture. Particulars: P. aeruginosa.
Text: as §1, §2

Data set [5] has as its system Human corneal epithelial cells (HCE-T-cell line). Description: MTT toxicity test. The note with it: compound 0.01%, 10 minutes treatment, in reference to KRB (100% viability) and Triton X (0% viability). The procedure:
The toxicity of the compounds of the invention was determined in accordance with a conventional MTT test. Human corneal epithelial cells (HCE-T-cell line) were cultivated in 5% Sasaki cell culture medium consisting of 250 ml DMEM (Dulbecco's Modified Eagle's Medium), 250 ml Ham's F12 medium, 27.17 ml fetale calf serum, 543.4 μl insulin 5 mg/ml, 1.086 ml EGF stock solution 5 μg/ml, 2.717 ml DMSO and 5.43 ml antibiotic/antimycotic solution. The cells were seeded into a 96 wells cell culture plate (18 000 cells/well) and grown in an incubator for about 24 h (37° C., 5% CO2). The medium was removed and the test compounds dissolved in KRB (Krebs Ringer buffer) were applied. 100 μl KRB were used as positive control whereas a 0.5% Triton X solution was used as negative control.
After incubation for 10 min. under light protection the test compounds were removed and the plates were rinsed once with 100 μl phosphate buffered saline (PBS without Mg and Ca) per well. After removal of PBS 100 μl MTT reagent (0.05%) were added into each well followed by incubation for 3h at 37° C. under light protection. Thereafter, the reagent was removed and replaced by 100 μl lysis solution. The dark blue dye was dissolved from the cells by shaking. After 30 min. the plate was evaluated by UV spectroscopy at 570 nm.
For orientation: Tetrazolium dyes change colour on reduction, which living cells bring about.

For the compound `c1cc(-c2cc[n+](CCCC[n+]3ccc(-c4ccncc4)cc3)cc2)ccn1` [Comp. ex. 3, reference compound], the MIC in data set [1] (48 h, A. bras. (2d)) is 200 µg/mL; in data set [1] (216 h, A. bras. (9d)), 200 to 400 µg/mL; in data set [2] it was 200 µg/mL; in data set [3], 200 µg/mL; in data set [4], greater than 400 µg/mL.

Turning to `BrCCCC[n+]1ccc(-c2ccncc2)cc1` [Ex. 5], the MIC in data set [1] (48 h, A. bras. (2d)) was 3.1 µg/mL; in data set [1] (216 h, A. bras. (9d)), 3.1 to 50 µg/mL; in data set [2] it was 1.56 µg/mL; in data set [3], 6.3 µg/mL; in data set [4] it was 12.5 µg/mL. In data set [5], this compound returned a Viability of 83.8 ± 12.6%.

As to `CC[N+](CC)(CC)C/C=C/C[n+]1ccc(CCCc2cc[n+](C/C=C/C[n+]3ccc(CCCc4cc[n+](C/C=C/C[N+](CC)(CC)CC)cc4)cc3)cc2)cc1` [Ex. 3], the MIC is 12.5 µg/mL in data set [1] (48 h, A. bras. (2d)); 12.5 to 25 µg/mL in data set [1] (216 h, A. bras. (9d)); less than 3.1 µg/mL in data set [2]; 50 µg/mL in data set [3]; 25 µg/mL in data set [4]. Besides, in data set [5], the Viability was 90.3 ± 7.0%.

Turning to `CCCCCCCCCCCC[N+](C)(C)CCCC[n+]1ccc(-c2ccncc2)cc1` [Ex. 6.2], the MIC in data set [1] (48 h, A. bras. (2d)) was 6.3 µg/mL; in data set [1] (216 h, A. bras. (9d)) it was 6.3 µg/mL; in data set [2], less than 3.12 µg/mL; in data set [3] it was 6.3 µg/mL; in data set [4], 12.5 µg/mL. In data set [5], this compound came in with a Viability of 74.9 ± 12.0%.
